Measurements published in ChEMBL document CHEMBL5390243, “Catecholamine Derivatives: Natural Occurrence, Structural Diversity, and Biological Activity” (J Nat Prod, 2023).
In brackets after ≈: the same amount, converted by molar mass. One block for each compound: values may come before it.

Key:
[1] = Antioxidant activity assessed as DPPH radical scavenging activity incubated for 20 mins by spectrophotometric method; assay type: functional
Cholinesterase = Cholinesterase (Homo sapiens, UniProt P06276); assay: Inhibition of butyrylcholinesterase (unknown origin)
Helicoverpa armigera = assay: Antifeedant activity against Helicoverpa armigera at 100 uM relative to control; assay type: functional
Acetylcholinesterase [2] = target: T1, Acetylcholinesterase (Homo sapiens, UniProt P22303); assay: Inhibition of AChE (unknown origin) by Ellman's method
[3] = Metal chelating activity assessed as iron chelation by CAS assay
[4] = target: Alpha-2B adrenergic receptor (Homo sapiens, UniProt P18089); assay: Binding affinity to alpha2B receptor (unknown origin) assessed as inhibition constant
MCF7 = assay: Cytotoxicity against human MCF7 cells assessed as reduction in cell viability measured after 24 hrs by MTT assay; assay type: functional, cell-based; details: MCF7, 24 h
Acetylcholinesterase [5] = target: T1, Acetylcholinesterase; assay: Inhibition of Acetylcholinesterase (unknown origin) using acetylthiocholine iodide as substrate incubated for 20 mins by Ellaman's method
Acetylcholinesterase [6] = target: T1, Acetylcholinesterase; assay: Inhibition of human AchE using acetylthiocholine iodide as substrate incubated for 20 mins by Ellman's assay; details: read-out: EC50 (the source's name)
[7] = target: Tyrosine-protein kinase JAK3 (Homo sapiens, UniProt P52333); assay: Inhibition of JAK3 (unknown origin) preincubated for 1 hr followed by substrate addition and measured after 1 hr in the presence of ATP by FRET-based Z'-Lyte assay
[8] = target: Glycogen synthase kinase-3 beta (Homo sapiens, UniProt P49841); assay: Inhibition of N-terminal His6-tagged human recombinant GSK3beta expressed in baculovirus-infected Sf21 cells incubated for 60 mins in presence of ATP by ADP-glo analysis
[9] = target: Casein kinase I isoform delta (Homo sapiens, UniProt P48730); assay: Inhibition of N-terminal GST-tagged human recombinant CK1delta (1 to 294 residues) expressed in Escherichia coli incubated for 60 mins in presence of ATP by Kinase-glo luminescent assay
[10] = target: Cyclin-dependent kinase 5/CDK5 activator 1 (Homo sapiens, UniProt Q00535); assay: Inhibition of N-terminal full length human recombinant CDK5/p25 expressed in baculovirus-infected Sf21 cells incubated for 60 mins in presence of ATP by kinase-glo luminescent assay
RAW264.7 [11] = assay: Anti-inflammatory activity against mouse RAW264.7 cells assessed as inhibition of LPS-induced NO production at 100 ng/ml pretreated with compound for 2 hrs followed by LPS stimulation and measured after 24 hrs by Griess reagent based analysis; assay type: functional; design: scale not given: the % may be the effect or the level left; details: time 26 hrs
RAW264.7 [12] = assay: Antiinflammatory activity against LPS-induced mouse RAW264.7 cells assessed as reduction in IL-6 mRNA expression at 10 uM by RT-PCR analysis; assay type: functional; design: scale not given: the % may be the effect or the level left
[13] = Antioxidant activity assessed as DPPH radical scavenging activity measured after 30 mins by UV-visible spectrophotometric analysis; assay type: functional
[14] = Antioxidant activity assessed as ABTS radical scavenging activity incubated for 30 mins by UV-visible spectrphotometric analysis; assay type: functional
HeLa = assay: Cytotoxicity against human HeLa cells assessed as reduction in cell viability measured after 24 hrs by MTT assay; assay type: functional, cell-based
[15] = target: Beta-1 adrenergic receptor (Homo sapiens) (UniProt P08588); assay: Agonist activity at ARbeta1 (unknown origin) expressed in CHO-K1 cells co-expressing G alpha 15 assessed as inhibition of isoproterenol induced calcium response upto 100 uM incubated for 10 mins by calcium mobilization assay relative to control; assay type: functional, cell-based; design: Activity: scale not given: the % may be the effect or the level left
Sequence of Beta-1 adrenergic receptor (Homo sapiens) (P08588 whole entry, looked up): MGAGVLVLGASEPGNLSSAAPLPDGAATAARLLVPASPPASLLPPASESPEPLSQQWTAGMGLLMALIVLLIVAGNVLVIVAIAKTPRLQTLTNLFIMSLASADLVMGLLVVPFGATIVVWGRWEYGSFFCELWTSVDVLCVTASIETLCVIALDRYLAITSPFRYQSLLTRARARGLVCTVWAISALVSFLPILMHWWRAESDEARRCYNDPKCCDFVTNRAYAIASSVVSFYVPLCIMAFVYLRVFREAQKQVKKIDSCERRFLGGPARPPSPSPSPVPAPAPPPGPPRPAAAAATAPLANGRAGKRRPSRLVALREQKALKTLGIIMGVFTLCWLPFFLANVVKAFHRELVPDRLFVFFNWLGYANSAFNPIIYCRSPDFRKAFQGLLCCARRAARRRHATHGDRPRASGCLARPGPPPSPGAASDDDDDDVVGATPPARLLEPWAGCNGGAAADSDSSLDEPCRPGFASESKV

Sequence of Cholinesterase (P06276 whole entry): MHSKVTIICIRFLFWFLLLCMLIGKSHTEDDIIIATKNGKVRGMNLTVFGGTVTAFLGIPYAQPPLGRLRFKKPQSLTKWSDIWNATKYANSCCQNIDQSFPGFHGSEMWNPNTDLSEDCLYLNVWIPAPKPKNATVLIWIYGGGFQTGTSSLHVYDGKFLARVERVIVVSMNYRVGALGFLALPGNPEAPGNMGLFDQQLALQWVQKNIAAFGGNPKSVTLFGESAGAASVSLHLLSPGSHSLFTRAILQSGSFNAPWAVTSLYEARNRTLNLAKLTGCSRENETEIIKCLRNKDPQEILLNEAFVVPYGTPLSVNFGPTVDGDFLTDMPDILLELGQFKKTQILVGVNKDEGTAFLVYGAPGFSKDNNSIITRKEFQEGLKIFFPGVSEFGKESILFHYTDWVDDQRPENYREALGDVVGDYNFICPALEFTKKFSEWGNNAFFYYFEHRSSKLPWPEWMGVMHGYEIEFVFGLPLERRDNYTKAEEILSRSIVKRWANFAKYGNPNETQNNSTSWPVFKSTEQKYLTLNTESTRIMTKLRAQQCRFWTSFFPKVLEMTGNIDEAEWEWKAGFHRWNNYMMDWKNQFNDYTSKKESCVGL
T1 sequence (P22303 whole entry): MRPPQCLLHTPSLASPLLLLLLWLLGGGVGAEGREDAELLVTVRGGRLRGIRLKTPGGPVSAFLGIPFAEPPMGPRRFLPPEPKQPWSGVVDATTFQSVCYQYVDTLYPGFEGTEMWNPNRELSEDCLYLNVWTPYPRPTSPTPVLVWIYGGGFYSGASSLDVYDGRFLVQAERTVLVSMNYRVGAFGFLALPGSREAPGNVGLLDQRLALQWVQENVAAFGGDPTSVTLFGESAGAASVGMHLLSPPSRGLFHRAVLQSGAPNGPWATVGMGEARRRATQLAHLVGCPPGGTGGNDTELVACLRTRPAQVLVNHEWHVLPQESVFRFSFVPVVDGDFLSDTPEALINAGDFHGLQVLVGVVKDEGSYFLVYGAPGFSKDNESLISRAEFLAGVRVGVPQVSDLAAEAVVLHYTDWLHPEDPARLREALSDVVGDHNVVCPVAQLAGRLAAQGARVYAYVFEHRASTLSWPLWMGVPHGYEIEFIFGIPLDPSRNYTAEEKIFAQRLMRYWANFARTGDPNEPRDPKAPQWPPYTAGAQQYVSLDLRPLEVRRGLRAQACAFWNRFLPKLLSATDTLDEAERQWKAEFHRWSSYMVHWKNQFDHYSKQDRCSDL
Sequence of Alpha-2B adrenergic receptor (P18089 whole entry): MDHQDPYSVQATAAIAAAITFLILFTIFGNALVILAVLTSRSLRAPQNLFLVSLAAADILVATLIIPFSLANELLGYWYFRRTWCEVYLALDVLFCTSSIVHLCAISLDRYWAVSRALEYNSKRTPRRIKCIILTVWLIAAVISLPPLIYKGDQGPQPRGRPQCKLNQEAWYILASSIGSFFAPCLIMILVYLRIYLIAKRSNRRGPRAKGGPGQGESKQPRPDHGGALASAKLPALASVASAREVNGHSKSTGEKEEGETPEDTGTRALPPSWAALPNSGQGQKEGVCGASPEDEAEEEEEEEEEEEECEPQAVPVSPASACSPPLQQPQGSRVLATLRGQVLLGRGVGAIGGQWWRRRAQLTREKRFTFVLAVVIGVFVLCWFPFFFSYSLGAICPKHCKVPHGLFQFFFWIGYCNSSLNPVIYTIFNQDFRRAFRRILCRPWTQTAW
Sequence of Glycogen synthase kinase-3 beta (P49841 whole entry, the tested form may be a part, canonical isoform): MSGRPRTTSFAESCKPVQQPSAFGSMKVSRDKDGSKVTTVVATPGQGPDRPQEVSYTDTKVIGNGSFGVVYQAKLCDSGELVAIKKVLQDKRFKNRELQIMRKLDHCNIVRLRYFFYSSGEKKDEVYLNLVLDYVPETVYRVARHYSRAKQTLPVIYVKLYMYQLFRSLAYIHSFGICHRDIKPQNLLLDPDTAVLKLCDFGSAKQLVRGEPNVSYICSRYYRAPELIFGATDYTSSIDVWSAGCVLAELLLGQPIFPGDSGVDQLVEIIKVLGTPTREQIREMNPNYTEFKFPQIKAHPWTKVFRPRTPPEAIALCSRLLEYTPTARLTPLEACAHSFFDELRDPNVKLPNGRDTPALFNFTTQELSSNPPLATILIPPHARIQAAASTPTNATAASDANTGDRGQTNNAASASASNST
Sequence of Casein kinase I isoform delta (P48730 whole entry, the tested form may be a part, canonical isoform): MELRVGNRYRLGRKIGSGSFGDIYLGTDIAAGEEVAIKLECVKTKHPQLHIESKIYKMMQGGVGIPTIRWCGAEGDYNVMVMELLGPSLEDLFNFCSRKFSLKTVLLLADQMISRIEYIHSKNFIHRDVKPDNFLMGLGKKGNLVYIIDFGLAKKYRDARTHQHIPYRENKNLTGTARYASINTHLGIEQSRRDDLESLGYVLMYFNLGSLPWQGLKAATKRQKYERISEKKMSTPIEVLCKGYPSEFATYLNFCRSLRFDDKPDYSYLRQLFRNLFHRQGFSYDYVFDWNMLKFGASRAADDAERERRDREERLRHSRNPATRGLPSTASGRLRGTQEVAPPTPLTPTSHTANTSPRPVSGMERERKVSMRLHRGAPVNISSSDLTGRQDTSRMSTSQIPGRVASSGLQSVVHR
Sequence of Tyrosine-protein kinase JAK3 (P52333 whole entry): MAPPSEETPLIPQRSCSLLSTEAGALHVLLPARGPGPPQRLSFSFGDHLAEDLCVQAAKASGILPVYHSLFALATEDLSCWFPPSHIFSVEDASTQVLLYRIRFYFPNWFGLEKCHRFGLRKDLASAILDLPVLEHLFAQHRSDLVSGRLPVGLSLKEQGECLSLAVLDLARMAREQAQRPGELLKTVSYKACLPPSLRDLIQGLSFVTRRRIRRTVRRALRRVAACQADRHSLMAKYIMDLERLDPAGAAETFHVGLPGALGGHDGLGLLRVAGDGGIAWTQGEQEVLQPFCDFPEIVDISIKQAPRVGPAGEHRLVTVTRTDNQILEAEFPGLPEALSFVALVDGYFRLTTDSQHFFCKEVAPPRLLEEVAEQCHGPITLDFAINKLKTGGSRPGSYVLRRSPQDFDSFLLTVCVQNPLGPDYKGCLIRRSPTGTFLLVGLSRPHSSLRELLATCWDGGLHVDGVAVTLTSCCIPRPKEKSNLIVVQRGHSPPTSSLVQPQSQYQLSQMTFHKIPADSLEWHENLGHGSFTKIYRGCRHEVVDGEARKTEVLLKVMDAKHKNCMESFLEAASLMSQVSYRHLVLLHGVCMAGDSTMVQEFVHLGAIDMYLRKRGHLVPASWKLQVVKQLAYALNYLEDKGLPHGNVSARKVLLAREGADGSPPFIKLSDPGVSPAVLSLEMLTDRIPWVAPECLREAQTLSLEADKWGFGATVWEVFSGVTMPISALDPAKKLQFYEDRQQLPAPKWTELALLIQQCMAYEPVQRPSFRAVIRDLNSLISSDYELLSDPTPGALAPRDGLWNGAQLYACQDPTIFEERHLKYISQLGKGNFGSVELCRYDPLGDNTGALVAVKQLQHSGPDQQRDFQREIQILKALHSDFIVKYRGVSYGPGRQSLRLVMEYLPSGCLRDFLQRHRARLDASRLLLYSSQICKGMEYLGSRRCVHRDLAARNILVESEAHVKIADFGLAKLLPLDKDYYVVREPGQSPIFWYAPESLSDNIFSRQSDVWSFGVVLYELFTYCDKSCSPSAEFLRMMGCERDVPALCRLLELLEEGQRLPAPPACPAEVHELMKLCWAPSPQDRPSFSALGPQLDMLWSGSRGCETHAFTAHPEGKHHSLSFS
Sequence of Cyclin-dependent kinase 5/CDK5 activator 1 (Q00535 whole entry): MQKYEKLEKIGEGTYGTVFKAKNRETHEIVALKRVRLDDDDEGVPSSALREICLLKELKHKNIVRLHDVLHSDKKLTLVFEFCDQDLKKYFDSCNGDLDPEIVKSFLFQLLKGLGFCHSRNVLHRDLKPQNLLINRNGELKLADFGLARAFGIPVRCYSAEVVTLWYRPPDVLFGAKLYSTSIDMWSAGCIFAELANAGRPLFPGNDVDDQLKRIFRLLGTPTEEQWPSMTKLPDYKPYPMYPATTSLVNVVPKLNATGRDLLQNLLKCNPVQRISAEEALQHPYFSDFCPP
Sequence of Cyclin-dependent kinase 5/CDK5 activator 1 (Q15078 whole entry, further chain): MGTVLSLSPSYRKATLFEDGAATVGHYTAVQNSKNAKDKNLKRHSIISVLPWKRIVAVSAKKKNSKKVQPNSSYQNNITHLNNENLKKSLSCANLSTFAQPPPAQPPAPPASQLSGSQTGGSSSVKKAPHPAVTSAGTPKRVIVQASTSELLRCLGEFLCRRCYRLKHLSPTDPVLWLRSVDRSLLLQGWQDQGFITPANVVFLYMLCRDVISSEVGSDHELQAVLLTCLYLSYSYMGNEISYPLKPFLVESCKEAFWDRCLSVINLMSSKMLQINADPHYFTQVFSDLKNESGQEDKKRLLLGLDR

- EC50 [1]: 37.7 µM
Compound: COC(=O)[C@@H]1Cc2cc(O)c(O[C@@H]3O[C@H](CO)[C@@H](O)[C@H](O)[C@H]3O)cc2N1C(=O)/C=C/c1ccc(O)cc1

Compound: CO[C@H](CNC(=O)/C=C/c1ccc(O)cc1)c1ccc(O)c(O)c1
- EC50 (Cholinesterase): 46.9 µM
- Activity (Helicoverpa armigera): 61.6%
- EC50 (Acetylcholinesterase [2]): 23.1 µM

- EC50 [3]: 4.6 µM
Compound: NC[C@H](CCCCNC(=O)c1cccc(O)c1O)NC(=O)c1cccc(O)c1O

- Ki [4]: 5.9 µM
Compound: COc1cc(CCN(C)C)c2c(c1O)SC(CCNC(=N)N)(C1=NCCc3cc(O)c(O)cc31)S2 (centres undefined)

Compound: COCc1ccc(C=O)n1CCc1ccc(O)c(O)c1
- IC50 (MCF7): 11.6 µM

Compound: C/C=C(\C)C(=O)O[C@H]1C[C@@H](OC(C)=O)[C@@]2(C(=O)OC)CO[C@H]3[C@@H](O)[C@@](C)([C@]45O[C@@]4(C)[C@H]4C[C@@H]5O[C@@H]5OC=C[C@@]54O)[C@H]4[C@]1(CO[C@]4(O)C(=O)OC)[C@@H]32 [AZADIRACTIN]
- EC50 (Cholinesterase): 68.1 µM
- EC50 (Acetylcholinesterase [2]): 29.3 µM

- Ki [4]: 5.9 µM
Compound: COc1cc(CCN(C)C)c2c(c1OC)SC(CCNC(=N)N)(C1=NCCc3cc(O)c(O)cc31)S2 (centres undefined)

- EC50 [1]: 21 µM
Compound: COC(=O)[C@@H]1Cc2cc(O)c(O[C@@H]3O[C@H](CO)[C@@H](O)[C@H](O)[C@H]3O)cc2N1C(=O)/C=C/c1ccc(O)c(OC)c1

Compound: N[C@@H](CO)C(=O)O [SERINE]
- IC50 (Acetylcholinesterase [5]): 38.3 µM

Compound: O=C(/C=C/c1ccc(O)c(O)c1)n1ccc2cc(O)c(O)cc21
- IC50 (Acetylcholinesterase [6]): 44.8 µM

- IC50 [7]: 12.6 µM
Compound: Cc1cnc(-c2ccc(O)c(O)c2)c(C)n1

Compound: O=C1c2c(ccc(O)c2O)CCn2cccc21
- IC50 (Acetylcholinesterase [5]): 50.5 µM

- IC50 [8]: 3.1 µM
- IC50 [9]: 3.9 µM
- IC50 [10]: 10 µM
Compound: O=c1oc2cc(O)c(O)cc2c2c3c4cc(O)c(O)cc4oc(=O)c3n(CCc3ccc(O)c(O)c3)c12

Compound: O=C(/C=C/c1ccc(O)cc1)NCCc1ccc(O)c(O)c1
- EC50 (Cholinesterase): 41.3 µM
- Activity (Helicoverpa armigera): 65.1%
- EC50 (Acetylcholinesterase [2]): 16.9 µM

Compound: COc1cc(/C=C/C(=O)O[C@H]2[C@H](OC[C@H]3O[C@@H](Oc4cc5c(cc4O)C[C@@H](C(=O)O)N5C(=O)/C=C/c4ccc(O)c(OC)c4)[C@H](O)[C@@H](O)[C@@H]3O)O[C@H](CO)[C@@H](O[C@@H]3O[C@H](CO)[C@@H](O)[C@H](O)[C@H]3O)[C@@H]2O)ccc1O
- Activity (RAW264.7 [11]): 45.2%
- Activity (RAW264.7 [12]): 75.6%

- EC50 [13]: 9.72 µg/mL (≈ 55.2 µM)
- EC50 [14]: 4.89 µg/mL (≈ 27.8 µM)
Compound: O=C1O[C@H]([C@@H](O)CO)C(O)=C1O [ASCORBIC ACID]

Compound: Oc1cc2c(cc1O)[C@@H](C1=C[C@@]3(O)CC/C=C\CCCCN4CC[C@@H]1[C@]1(C[C@@H]5/C=C\CCCCN5[C@H]13)C4)NCC2
- IC50 (HeLa): 4.2 µM

- Activity [15]: 24.2%
Compound: Oc1cc2c(cc1O)CCN=C2

Compound: COc1cc(/C=C/C(=O)OC[C@H]2O[C@@H](O[C@H]3[C@H](O)[C@@H](OC(=O)/C=C/c4ccc(O)c(O)c4)[C@H](OC[C@H]4O[C@@H](Oc5cc6c(cc5O)C[C@@H](C(=O)O)N6C(=O)/C=C/c5ccc(O)cc5)[C@H](O)[C@@H](O)[C@@H]4O)O[C@@H]3CO)[C@H](O)[C@@H](O)[C@@H]2O)ccc1O
- Activity (RAW264.7 [11]): 34.7%
- Activity (RAW264.7 [12]): 81%

Compound: O=Cc1ccc2n1CCc1cc(O)c(O)cc1C2
- IC50 (Acetylcholinesterase [5]): 58.4 µM

Compound: O=C(/C=C/c1ccc(O)c(O)c1)OC[C@H]1O[C@@H](O[C@H]2[C@H](O)[C@@H](OC(=O)/C=C/c3ccc(O)c(O)c3)[C@H](OC[C@H]3O[C@@H](Oc4cc5c(cc4O)C[C@@H](C(=O)O)N5C(=O)/C=C/c4ccc(O)cc4)[C@H](O)[C@@H](O)[C@@H]3O)O[C@@H]2CO)[C@H](O)[C@@H](O)[C@@H]1O
- Activity (RAW264.7 [11]): 38.8%
- Activity (RAW264.7 [12]): 74.2%

- Activity [15]: 13.7%
Compound: OCc1ccc(C2=NCCc3cc(O)c(O)cc32)o1

Compound: O=C1CCc2cc(O)c(O)cc2N1
- IC50 (MCF7): 20.5 µM
